{"source": "patent EP0565317A1", "about": "“(2-(2-hydroxy-2 phenylethylamino)ethoxy) phenyl derivatives, processes and intermediates for their preparation, pharmaceutical compositions containing them and their use as Beta-3-adrenoceptor agonists” (ZENECA LIMITED, priority 1992, dated 1993)", "key": {"BAT mitochondria": {"system": "BAT mitochondria", "test": "GDP binding in BAT mitochondria of cold-adapted rats as a measure of thermogenic activation (test a)", "type": "in vivo", "conditions": "Rattus norvegicus, 1 h; oral; dose producing 50% of the effect of isoprenaline (1 mgkg-1) on GDP binding; rats sacrificed one hour after dosing"}, "Rats [1]": {"system": "Rats", "test": "Metabolic rate by closed-circuit oxygen consumption in fasted rats (test c)", "type": "in vivo", "conditions": "at 1mgkg^-1 p.o.; determined for at least one hour after dosing"}, "Rats [2]": {"system": "Rats", "test": "Heart rate in rats adapted to a thermoneutral environment; D500 dose and selectivity index (test b)", "conditions": "selectivity index = ratio of D500 to ED50 in test (a)"}}, "data": [{"compound": "COCC(=O)Cc1ccc(OCCNCC(O)c2ccccc2)cc1", "note": "(stereo not shown) [Example 1, 1-[4-(2-(2-Hydroxy-2-phenylethylamino)ethoxy)phenyl]-3-methoxypropan-2-one]", "values": [{"measurement": "ED50", "setting": "BAT mitochondria", "value": 0.98, "unit": "mg/kg"}, {"measurement": "metabolic rate", "setting": "Rats [1]", "value": "4.99 ml O2 min^-1 (Kg^0.75)^-1"}, {"measurement": "SI", "setting": "Rats [2]; oral", "value": "> 50"}]}, {"compound": "CC(C)NCC(O)c1ccc(O)c(O)c1", "note": "(stereo not shown) [isoprenaline, reference compound]", "values": [{"measurement": "SI", "setting": "Rats [2]; route not stated", "value": 0.06}]}]}
